Consider nine compounds from US5604236A, “Beta-carboline thromboxane synthase inhibitors” (Eli Lilly and Company, priority 1995, dated 1997).

One series addresses T1, thromboxane synthase (Homo sapiens, UniProt P24557).
T1 construct: incubated with fresh whole human blood, that had been anticoagulated with 0.38% trisodium citrate; from tissue; host or cells: fresh whole human blood (citrated, recalcified to clot)
T1 sequence (P24557 1-533): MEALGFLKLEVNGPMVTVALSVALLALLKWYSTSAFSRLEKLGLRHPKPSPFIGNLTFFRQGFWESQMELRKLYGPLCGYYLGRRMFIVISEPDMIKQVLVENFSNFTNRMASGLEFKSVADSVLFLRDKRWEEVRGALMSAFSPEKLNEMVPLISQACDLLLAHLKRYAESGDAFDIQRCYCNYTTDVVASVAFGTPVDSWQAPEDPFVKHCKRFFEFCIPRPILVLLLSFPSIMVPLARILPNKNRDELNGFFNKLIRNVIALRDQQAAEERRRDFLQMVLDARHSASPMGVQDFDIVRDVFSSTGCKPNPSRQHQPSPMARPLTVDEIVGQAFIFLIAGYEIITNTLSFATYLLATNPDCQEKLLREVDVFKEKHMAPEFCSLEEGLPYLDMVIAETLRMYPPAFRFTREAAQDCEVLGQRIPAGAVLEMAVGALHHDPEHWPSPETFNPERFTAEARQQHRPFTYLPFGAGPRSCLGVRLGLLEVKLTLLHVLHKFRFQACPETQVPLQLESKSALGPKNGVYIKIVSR
In words: Thromboxane Synthase Inhibition (TSI) Test, serum TXB2 by radioimmunoassay in human whole blood. It is filed as cell-based. Particulars: fresh whole human blood, 30 min at 37° C., then CaCl2 1 hour; TXB2 RIA; read-out: IC50 (concentration of compound required to reduce thromboxane generation to 50% of that obtained with vehicle alone). The protocol:
(§1) The ability of the compounds of the present invention to be an effective thromboxane synthase inhibitors were evaluated in the following Thromboxane Synthase Inhibition (TSI) Assay with the results shown in Table 2 below: The test compounds were dissolved in dimethylsulfoxide. The compound solutions were incubated with fresh whole human blood, that had been anticoagulated with 0.38% trisodium citrate, for 30 minutes at 37° C. After 30 minutes, 0.025 ml of 0.5M calcium chloride solution was added to each 1 ml of blood and further incubated for one hour at 37° C. Serum was prepared by centrifugation of the blood at 2000×g for 15 minutes in a Beckman table top centrifuge. Serum TXB2 and 6-keto-PGF1a, the stable metabolites of and markers of synthesis of TXA2 and prostacyclin respectively, were measured by radioimmunoassay by commonly used test methods (see, Refs.,1 & 2 below). Results from the radioimmunoassay of TXB2 were used to calculate the IC50 (concentration of compound required to reduce thromboxane generation to 50% of that obtained with vehicle alone).

The test system of series [1] is 6-keto-PGF1a (prostacyclin generation). The note with it: stated as well known; result in words; cited from earlier work.
In the next series the test system is TXB2. The experiment in a line: Serum TXB2 levels ex vivo after oral or i.v. administration to rats. It is filed as in vivo. Particulars: rat. The protocol: The blood was allowed to clot in glass tubes for 1 hour at 37° C. Serum was collected after sedimentation of the clot by centrifugation at 2000×g for 15 minutes in a Beckman table top centrifuge. The levels of TXB2 were measured in the serum by radioimmunoassay.

Series [2] relates to 6-keto-PGF1a (prostacyclin generation). In words: Serum 6-keto-PGF1a (prostacyclin generation) by radioimmunoassay in human whole blood. The note with it: for Serum 6-keto-PGF1a: vehicle 2.43. It is filed as cell-based. How it is done: as §1, with “The” for “The ability of the compounds of the present invention to be an effective thromboxane synthase inhibitors were evaluated in the following Thromboxane Synthase Inhibition (TSI) Assay with the results shown in Table 2 below: The”
Data determined from the radioimmunoassay of 6-keto-PGF1a (reflecting prostacyclin generation) allowed a determination of the specificity of the compound of example 1 for the inhibition of thromboxane synthase as indicated by increased levels of 6-keto-PGF1a relative to the less specific inhibition of cyclooxygenase by aspirin.

As for `O=C(O)CCCCn1c2ccccc2c2ccncc21` [Example 3, 9H-Pyrido (3,4-β)indole-9-pentanoic acid], the IC50 at thromboxane synthase turned out to be 100 nM.
In the case of `COc1ccc2c(c1)c1ccncc1n2CCCCCC(=O)O` [Example 7, 6-Methoxy-9H-pyrido(3,4-β)indole-9-hexanoic acid], the IC50 at thromboxane synthase came to 49 nM.
For `O=C(O)CCCCCCn1c2ccccc2c2ccncc21` [Example 4], the IC50 on thromboxane synthase is 210 nM.
For the compound `O=C(O)CCCCCn1c2ccc(Br)cc2c2ccncc21` [Example 5, 6-Bromo-9H-pyrido(3,4-β)indole-9-hexanoic acid], the IC50 at thromboxane synthase stood at 68 nM.
For `CC(=O)Oc1ccccc1C(=O)O` [Aspirin], in series [1], the “generation of 6-keto-PGF1a” value is “completely inhibit”.
For `Cc1ccc2c(c1)c1ccncc1n2CCCCCC(=O)O` [Example 6, 6-Methyl-9H-pyrido(3,4-β)indole-9-hexanoic acid], on thromboxane synthase, the IC50 amounted to 31 nM.
Turning to `O=C(O)CCCn1c2ccccc2c2ccncc21` [Example 2, 9H-Pyrido (3,4-β)indole-9-butanoic acid], the IC50 on thromboxane synthase came to 19000 nM.
Still for that read-out and setting: for `O=C(O)CCCCCn1c2ccc([N+](=O)[O-])cc2c2ccncc21` [Example 8, 6-Nitro-9H-pyrido(3,4-β)indole-9-hexanoic acid] the value was 91 nM.
`O=C(O)CCCCCn1c2ccccc2c2ccncc21` [Example 1, 9H-Pyrido(3,4-β)indole-9-hexanoic acid]: the “Serum TXB2 (% control)” value in the series on TXB2 (i.v., 0.01 mg/kg, 15 minutes) is 69 % control; in the series on TXB2 (i.v., 0.1 mg/kg, 15 minutes), 14 % control; in the series on TXB2 (i.v., 1 mg/kg, 15 minutes), 4 % control; in the series on TXB2 (oral, 0.1 mg/kg, one hour) it was 54 % control; in the series with TXB2 (oral, 1 mg/kg, one hour) it was 16 % control; in the series with TXB2 (oral, 10 mg/kg, one hour) it was 2 % control. The “Serum TXB2 (% control)” value in the series with TXB2 (oral, 100 mg/kg, one hour) worked out at 1 % control. Moreover, the “availability by oral and i.v. routes” value in the series on TXB2 (inferred from decreased serum TXB2, result in words) was “availability of the compounds by both oral and i.v. routes”. Further, the “Serum 6-keto-PGF1a” value stood at 3.01 ng/mL in series [2] (0.001 μM); 5.09 ng/mL in series [2] (0.01 μM); 7.07 ng/mL in series [2] (0.1 μM); 7.71 ng/mL in series [2] (1 μM); 7.82 ng/mL in series [2] (10 μM). Moreover, in series [2] (human serum, result in words), the “effect on human serum 6-keto-PGF1a levels” value is given as “dose-dependent stimulatory effect”. Moreover, the IC50 at thromboxane synthase turned out to be 53 nM.
